Results from ChEMBL document CHEMBL5614404, “Optimization of potent, broad-spectrum, and specific anti-influenza compounds targeting RNA polymerase PA-PB1 heterodimerization” (Eur J Med Chem, 2024).

Legend:
Influenza A virus [1] = assay: Antiviral activity against Amantadine-resistant Influenza A virus California/07/2009 (H1N1) clinical isolate infected in MDCK cells expressing ST6Gal by crystal violet staining based plaque reduction assay; format: functional, organism-based
Influenza A virus [2] = assay: Antiviral activity against Amantadine/Oseltamivir-resistant Influenza A virus Denmark/528/2009 (H1N1) clinical isolate infected in MDCK cells expressing ST6Gal by crystal violet staining based plaque reduction assay; format: functional, organism-based
[3] = target: T1, RNA-directed RNA polymerase (Influenza A virus (strain A/Puerto Rico/8/1934 H1N1), UniProt P03428+P03431+P03433); assay: Inhibition of Influenza A virus RdRp transfected in HEK293T cells co-expressing PA/PB1/PB2/NP/firefly luciferase/Renilla luciferase assessed as impaired nuclear import preincubated for 4 hrs followed by medium replacement with compound measured after 20 hrs by minireplicon assay; format: cell-based
Influenza A virus [4] = assay: Antiviral activity against Oseltamivir-resistant Influenza A virus Parma/24/09 (H1N1) infected in MDCK cells incubated for 48 hrs by plaque reduction assay; format: functional, organism-based
Influenza A virus [5] = assay: Antiviral activity against Influenza A virus PR/8/34 infected in human A549 cells assessed as reduction in viral progeny preincubated for 1 hr followed by media replacement with compound measured after 23 hrs by virus yeild reduction assay; format: functional, organism-based; conditions: for EC50: PR/8/34, A549; for Activity: time 24.0 hrs
[6] = target: T1, RNA-directed RNA polymerase; assay: Inhibition of Influenza A virus RdRp transfected in HEK293T cells co-expressing PA/PB1/PB2/NP/firefly luciferase/Renilla luciferase preincubated for 4 hrs followed by medium replacement with compound measured after 20 hrs by minireplicon assay; format: cell-based
Influenza A virus [7] = assay: Antiviral activity against Amantadine-resistant/Oseltamivir-sensitive Influenza A virus WSN/1933 (H1N1) infected in MDCK cells by plaque reduction assay; format: functional, organism-based
Influenza A virus [8] = assay: Antiviral activity against Amantadine-resistant/Oseltamivir-sensitive Influenza A virus California/07/2009 (H1N1) infected in MDCK cells by plaque reduction assay; format: functional, organism-based
Influenza A virus [9] = assay: Antiviral activity against Amantadine-resistant/Oseltamivir-sensitive Influenza A virus Switzerland/9715293/2013 (H3N2) infected in MDCK cells by plaque reduction assay; format: functional, organism-based
Influenza A virus [10] = assay: Antiviral activity against Amantadine/Oseltamivir-resistant Influenza A virus North Carolina/39/2009 (H1N1) infected in MDCK cells by plaque reduction assay; format: functional, organism-based
Influenza A virus [11] = assay: Antiviral activity against Amantadine/Oseltamivir-resistant Influenza A virus Washington/29/2009 (H1N1) infected in MDCK cells by plaque reduction assay; format: functional, organism-based
Influenza A virus [12] = assay: Antiviral activity against Amantadine/Oseltamivir-resistant Influenza A virus Texas/04/2009 (H1N1) infected in MDCK cells by plaque reduction assay; format: functional, organism-based
Influenza A virus [13] = assay: Antiviral activity against Amantadine/Oseltamivir-resistant Influenza A virus Denmark/528/2009 (H1N1) infected in MDCK cells by plaque reduction assay; format: functional, organism-based
Influenza B virus = assay: Antiviral activity against Amantadine-resistant/Oseltamivir-sensitive Influenza B virus Wisconsin/01/2010 infected in MDCK cells by plaque reduction assay; format: functional, organism-based; conditions: Wisconsin/01/2010, MDCK

## C[C@@H](c1ccccc1)n1nnnc1[C@H](c1ccsc1)N1CCC(n2c(=O)[nH]c3ccccc32)CC1
Influenza A virus [1]
  EC50: 600 nM
Influenza A virus [2]
  EC50: 600 nM

## N#Cc1ccc(C(=O)Nc2sc3c(c2C(=O)Nc2ccccc2O)CCCCC3)cc1
[3]
  EC50: 32 nM
Influenza A virus [4]
  EC50: 280 nM
Influenza A virus [5]
  EC50: 140 nM
  Activity: Dose-Dependent Effect

## NC(=O)c1nc(F)cnc1O
Influenza A virus [5]
  EC50: 7930 nM

## O=C(Nc1sc2c(c1C(=O)Nc1nccs1)CCCCC2)c1ccccc1O
[6]
  IC50: 330 nM

## O=C(Nc1sc2c(c1C(=O)Nc1ccc(F)cc1)CCCCC2)c1ccccc1O
[6]
  IC50: 470 nM

## O=C(Nc1sc2c(c1C(=O)Nc1ccccn1)CCCCC2)c1ccc([N+](=O)[O-])cc1
[6]
  IC50: 270 nM

## O=C(Nc1sc2c(c1C(=O)Nc1ccccn1)CCCCC2)c1ccccc1O
[6]
  IC50: 2800 nM

## O=C(Nc1sc2c(c1C(=O)Nc1ccccc1O)CCCCC2)c1ccc([N+](=O)[O-])cc1O
[3]
  EC50: 130 nM
Influenza A virus [4]
  EC50: 81 nM
Influenza A virus [5]
  EC50: 87 nM
  Activity: Dose-Dependent Effect

## NC(=O)c1ncn([C@@H]2O[C@H](CO)[C@@H](O)[C@H]2O)n1 [RIBAVIRIN]
[3]
  EC50: 21700 nM
Influenza A virus [4]
  EC50: 22000 nM

## N#Cc1ccc(C(=O)Nc2sc3c(c2C(=O)Nc2ccc(C(F)(F)F)cc2)CCCCC3)cc1
[3]
  EC50: > 10000 nM

## O=C1C(c2ncc([N+](=O)[O-])s2)CC[C@@H]2CCCC[C@@H]12 (some centres not stated)
Influenza A virus [7]
  EC50: 930 nM
Influenza A virus [8]
  EC50: 930 nM
Influenza A virus [9]
  EC50: 930 nM
Influenza A virus [10]
  EC50: 930 nM
Influenza A virus [11]
  EC50: 930 nM
Influenza A virus [12]
  EC50: 930 nM
Influenza A virus [13]
  EC50: 930 nM
Influenza B virus
  EC50: 930 nM

## O=C(Nc1sc2c(c1C(=O)Nc1ccc(Cl)cc1)CCCCC2)c1ccccc1O
[6]
  IC50: 1000 nM
